Entries after “also recorded” stand apart in the source; their conditions may differ.
Assays:
[1] = system: LNCaP, PC-3M and DU-145 cell lines; assay: Transepithelial electric resistance (TER); assay type: cell-based; conditions: 50 nM CT
Description: Cells were plated on Transwell filters (0.4 μm pore size) and grown to confluency in complete medium (RPMI1640 containing 10% fetal bovine serum, 20 mM HEPES and antibiotics). TER of the cultures (in duplicate wells) was measured at several time intervals with EVOM volt-ohm meter as previously described (Shah et al, 2009). The readings were corrected for blank (TER values from the filter in bathing medium). The integrity and cell density of monolayers were carefully monitored.
Whether CT produces similar effects in LNCaP, PC-3M and DU-145 cell lines, which endogenously express CTR, was examined as shown in FIG. 1A. FIGS. 9A-9B depict the effect of CT on tight junction (TJ) disruption as measured using TER and PCP in the three prostate cancer cell lines—LNCaP, PC-3M, and DU-145. […] In FIG. 9B, cells were treated with and without 50 nM CT, and PCP determined by diffusion of ˜4 kDa TRITC-conjugated dextran from the upper to the lower chamber in one hour. The results are expressed as μg/ml/hour of TRITC-Dextran diffused ±SEM (n=6; *p<0.05 (−CT v +CT, One way ANOVA and Newman-Keul's test)). […] Cells were added to upper insert of invasion chambers with or without 50 nM CT, and cells that passed through the Matrigel™ barrier were counted after 48 h. The results are expressed as mean number of invaded cells per 400× field ±SEM (n=6; *p<0.05).

CTR-ZO-1 interaction = molecular target: T1, CTR-ZO-1 interaction (Homo sapiens, UniProt P30988); assay: CTR-ZO-1 co-immunoprecipitation; assay type: cell-based; conditions: for co-precipitation of ZO-1 by CTRwt: 3 min, PC-3 cells
T1 construct: PCR generated full length CTRwt and CTRΔESS cDNAs were cloned directionally into pcDNA3.1 mammalian expression vector; FLAG (N); expressed in transfected cells; host or cells: PC-31 / PC-3 cells stably expressing FLAG-CTRwt; ZO-1 is the cells' own
T1 sequence (P30988 25-474): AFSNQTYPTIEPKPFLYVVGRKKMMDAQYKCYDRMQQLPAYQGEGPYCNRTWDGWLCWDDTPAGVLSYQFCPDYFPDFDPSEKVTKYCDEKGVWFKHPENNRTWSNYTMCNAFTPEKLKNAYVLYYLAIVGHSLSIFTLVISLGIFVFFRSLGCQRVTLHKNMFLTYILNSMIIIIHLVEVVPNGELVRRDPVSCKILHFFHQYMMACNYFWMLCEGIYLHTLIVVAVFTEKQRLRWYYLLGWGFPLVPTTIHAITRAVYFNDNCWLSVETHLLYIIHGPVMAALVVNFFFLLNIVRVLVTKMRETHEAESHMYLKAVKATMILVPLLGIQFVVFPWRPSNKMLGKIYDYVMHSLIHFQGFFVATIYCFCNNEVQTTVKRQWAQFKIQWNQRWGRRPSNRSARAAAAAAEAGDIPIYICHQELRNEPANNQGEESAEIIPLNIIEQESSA
Description: Serum-starved PC-31-V, PC-31-CTRwt or PC-31-CTRΔESS cells (2×10^6 per 100 mm dish) were stimulated with or without 50 nM CT for 3 min, washed, and lysed in the IP buffer as previously described (von Zastrow et al., 1994). CTR in normalized lysate proteins was immunoprecipitated with anti-FLAG EZ-view beads (Sigma Chemical Co., St. Louis, Mo.), and eluted with FLAG peptide (600 μg/ml in PBS). CTR immunoprecipitates were processed for ZO-1 immunoblotting. To control for protein loading and transfer, the blots were stripped and reprobed with immunoprecipitating antibody.
PC-31 cells stably expressing either FLAG-CTRwt or FLAGCTRΔESS were treated with or without CT for 3 min. The analysis of FLAG-CTR IPs confirmed that only FLAG-CTRwt, but not FLAG-CTRΔESS, co-precipitated ZO-1 (FIG. 3B). […] The effect of multiple CT concentrations on CTR-ZO-1 co-precipitation was tested in PC-3 cells. […] However, co-precipitation of ZO-1 by CTRwt was strong in PC-3 cells stimulated with 10 nM CT, and was even stronger in the cells receiving 100 nM CT.
As shown above, CTR binds to ZO-1 through PDZ interaction (i.e. PDZ ligand on C-tail of CTR binds to the PDZ domain of ZO-1). To attenuate this binding, ZO-1 was saturated with a small C-terminal peptide of CTR sequence containing the PDZ-binding motif. Since ZO-1 is an intracellular membrane protein, the interfering peptide was delivered inside the plasma membrane. It has been shown that trans-activating transcriptional activator (TAT) protein (86-mer polypeptide) from HIV-1 enters mammalian cells when added to the surrounding media (Frankel et al., 1988; Green et al., 1989). Certain small regions of such proteins (10-16-mers) called protein transduction domains (PTDs), also efficiently traverse biological membranes (Elliott et al., 1997). Therefore, a fusion peptide Pep 1 was synthesized of TAT-peptide sequences of HIV virus and CTR-C(N-[…]-C (SEQ ID NO:2), CTR-C sequence underlined). The first experiment was to see if Pep I binds to ZO-1 in reversible fashion. For this, amino acid Y in Pep I was labeled with ^125I, and the binding with ZO-1 analyzed in the presence/absence of unlabeled Pep I (1000×; 20 μM). PC-3CTR-ZO-1-MYC cells were first incubated with unlabeled Pep I or control peptide (20 μM) for 5 min. The cells were then incubated with ^125I-pep I or C for 25 min. The cells were then washed in IP buffer, treated with DSP, and lysed. ZO-1 IPs were obtained, fractionated on SDS-PAGE, and autoradiographed. […] Next, whether Pep I competes with CTR for ZO-1 binding was tested. For this, PC-3-CTR-wt cells were treated with CT (50 nM) and or Pep I (50 μM) for 15 min. The CTR IPs were then immunoblotted and probed for ZO-1 immunoreactivity. […] Next, the biological impact of this phenomenon was examined by testing the effect of Pep I on CTR-stimulated invasion.

calcitonin [CT]
TER [1]: reduced TER | co-precipitation of ZO-1 by CTRwt (CTR-ZO-1 interaction; 1 nM CT): barely detectable | co-precipitation of ZO-1 by CTRwt (CTR-ZO-1 interaction; 10 nM CT): strong | co-precipitation of ZO-1 with CTRwt, activated versus dormant (CTR-ZO-1 interaction; CT 50 nM): much more efficiently; also recorded: increased

Source: patent US9765115B2, “Inhibitors of metastasis, methods of generating such inhibitors and their therapeutic applications” (Board of Supervisors of Louisiana State University acting …, priority 2011, dated 2017)
